“Also recorded” adds a separate entry of the source.
What was measured:
CDK1 = CDK1 (Homo sapiens, UniProt P06493); assay: Recombinant mitotic kinase assay, CDK1; format: biochemical; details: recombinant kinases
Experimental: […] assays were performed with recombinant protein of the indicated mitotic kinase (left) and AMPK family kinases (right) in the presence of THZ-4-63-1. […] Cells were treated with nocodazole (100 ng/ml) for 18 h or not treated (Asyn., asynchronous). Nocodazole-arrested mitotic cells (M) were isolated via shake-off. The attached cells enriched in G2 phase (G2) were harvested. A portion of the mitotic cells were washed off nocodazole and released into G1 phase after 4 hours of incubation (G1). […] In Panel D, mitotic lysates were prepared from the indicated cells, and treated with λ-phosphatase at 30° C. In Panel E, nocodazole-arrested mitotic cells were treated with increasing concentration of THZ-4-63-1 for 30 min. Cell lysates were subjected to immunoblotting.
To discover a selective MELK inhibitor, a few molecule scaffolds with the potential of binding to MELK were identified, including 2,4-disubstituted pyrimidines and benzonaphthyridinones. […] To investigate if THZ-4-63-1 confers selective inhibition on MELK, we tested its effect on other mitotic kinases. In assays using recombinant kinases, MELK kinase activity was 20-fold more sensitive to THZ-4-63-1, than that of Aurora A, Aurora B, CDK1, or PLK1 (FIG. 1B).

Aurora kinases = assay: Aurora kinase phosphorylation in mitotic cells, immunoblotting; format: cell-based; details: 30 min
Experimental: Cell lysates were subjected to immunoblotting. […] The fluorescent signals of immunblotting were quantified using Image Studio Lite software (Licor Biosciences, Lincoln, Neb.). The signal of phosphorylated Aurora kinases was normalized to that of loading control (α-tubulin).
Cell lysates were prepared for immunoblotting. In Panels B and C, THZ-4-63-1 inhibits H3T3 phosphorylation in HeLa (B) and U2OS (C) cells. Nocodazole arrested mitotic cells were treated with THZ-4-63-1 at the indicated doses for 30 min. […] Cell lysates were subjected to immunblotting. The signal of H3T3 phosphorylation was normalized to that of α-tubulin (right).
We next proceeded to test if THZ-4-63-1 inhibits MELK activity in vivo. With a lack of established kinase substrates of MELK during mitosis, we used the auto-phosphorylation of MELK as a surrogate to indicate the activity of MELK. […] We then harvested nocodazole-arrested mitotic cells, and treated cells with increasing concentrations of THZ-4-63-1.
We exposed paclitaxel- or nocodazole-arrested mitotic cells to the individual inhibitor for 30 min in the presence of MG132, and collected lysates for examining signaling involved in chromosome alignment. […] Recent studies unravel a novel role of Aurora B in phosphorylating Haspin^7, a major factor responsible for phosphorylating Histone H3 at Thr3^14. […]

[1] = system: Histone H3 phosphorylation at Thr3; assay: Histone H3 Thr3 phosphorylation in arrested mitotic cells, immunoblotting; format: cell-based; details: paclitaxel- or nocodazole-arrested mitotic cells, 30 min, with MG132
Experimental: Cell lysates were prepared for immunoblotting. […] HeLa cells were treated with DMSO or THZ-4-63-1 (5 μM) for 4 h followed by 1 h treatment of MG132 (10 μM). Cells were fixed and stained with anti-H3T3ph and anti-CREST. […] Cells were treated as in FIG. 2, Panel D, and additionally treated with MG132 (10 μM) for 1 h before fixation. The histogram indicates the quantification of H3S10ph signal. […] MCF-10A cells stably expressing empty vector (EV) or MELK were fixed for immunostaining. Images were captured with identical exposure time. H3T3ph intensity was quantified by the use of ImageJ. […] Recombinant MELK protein (kinase domain) was incubated with recombinant Histone H3 for 30 min at 30° C. Samples were subjected to immunoblotting using the indicated antibodies. […] Cells stably expressing GFP-MELK were fixed by formaldehyde and stained with anti-H3S10ph. […] Asynchronized (Async.) or nocodazole-arrested mitotic cells were subjected to fractionation, with sample prepared for immunoblotting. Panels H and I are images showing that MELK inhibition impairs the localization of chromosome passenger complex (CPC), indicated by the immunofluorescence detecting Survivin (G) and Aurora B (H). In addition to the presence of doxycyclin or THZ-4-63-1, cells were treated with nocodazole (0.33 μM) and MG132 (10 μM) for 3 h before fixation.
Cell lysates were prepared for immunoblotting. […]

[2] = system: chromosome passenger complex (Survivin, Aurora B); assay: Localization of chromosome passenger complex, immunofluorescence; format: cell-based; details: with nocodazole (0.33 μM) and MG132 (10 μM) 3 h
Experimental: Cell lysates were prepared for immunoblotting. […] HeLa cells were treated with DMSO or THZ-4-63-1 (5 μM) for 4 h followed by 1 h treatment of MG132 (10 μM). Cells were fixed and stained with anti-H3T3ph and anti-CREST. […] Cells were treated as in FIG. 2, Panel D, and additionally treated with MG132 (10 μM) for 1 h before fixation. The histogram indicates the quantification of H3S10ph signal. […] MCF-10A cells stably expressing empty vector (EV) or MELK were fixed for immunostaining. Images were captured with identical exposure time. H3T3ph intensity was quantified by the use of ImageJ. […] Recombinant MELK protein (kinase domain) was incubated with recombinant Histone H3 for 30 min at 30° C. Samples were subjected to immunoblotting using the indicated antibodies. […] Cells stably expressing GFP-MELK were fixed by formaldehyde and stained with anti-H3S10ph. […] Asynchronized (Async.) or nocodazole-arrested mitotic cells were subjected to fractionation, with sample prepared for immunoblotting. Panels H and I are images showing that MELK inhibition impairs the localization of chromosome passenger complex (CPC), indicated by the immunofluorescence detecting Survivin (G) and Aurora B (H). In addition to the presence of doxycyclin or THZ-4-63-1, cells were treated with nocodazole (0.33 μM) and MG132 (10 μM) for 3 h before fixation. […]

U2OS-(H2B-GFP) cells = assay: Mitotic slippage, time-lapse imaging of U2OS-(H2B-GFP) cells; format: cell-based, human; details: 5 μM, 4 h exposure
Experimental: (§1) Mitotic cells were treated with THZ-4-63-1 at indicated concentrations for 4 h. Cells were collected for immunoblotting. Panel B contains time-lapse images of U2OS-(H2B-GFP) cells treated with THZ-4-63-1 (5 μM). […] Panel C contains blots showing proteasome-mediated degradation of Cyclin B1, Aurora B and MELK in THZ-4-63-1-induced mitotic slippage. Mitotic cells were treated as in Panel A with THZ-4-63-1 (5 μM), or MG132 (10 μM), or both for 4 h. Panel D contains a graph showing quantification of cell proliferation in the indicated breast cancer cell lines, which were treated with vehicle control or THZ-4-63-1 for one week (Top) and also contains bright-field images acquired from control cells or cells treated with THZ-4-63-1 (111 nM) (Bottom). […] Cells were treated with indicated drugs, and harvested in ten days for quantification of cell growth. The bold curve depicts the theoretic prediction of an additive action between paclitaxel and THZ-4-63-1.
Centromeric localization of CPC has been implicated in checkpoint signaling^8. […] We further found an impaired spindle checkpoint in cells with MELK knockdown (FIG. 9C).

MDA-MB-468 = assay: Cell growth with paclitaxel combination in MDA-MB-468; format: cell-based, human; details: THZ-4-63-1 33.3 or 66.6 nM plus paclitaxel 2 nM
Experimental: as §1
Because microtubule-targeting chemotherapy is the mainstay of treatment for many types of cancer including basal-like breast cancer, we asked if MELK inhibition could combine with drugs that impair microtubule dynamics. […]

CDK1, sequence (P06493 whole entry, species assumed): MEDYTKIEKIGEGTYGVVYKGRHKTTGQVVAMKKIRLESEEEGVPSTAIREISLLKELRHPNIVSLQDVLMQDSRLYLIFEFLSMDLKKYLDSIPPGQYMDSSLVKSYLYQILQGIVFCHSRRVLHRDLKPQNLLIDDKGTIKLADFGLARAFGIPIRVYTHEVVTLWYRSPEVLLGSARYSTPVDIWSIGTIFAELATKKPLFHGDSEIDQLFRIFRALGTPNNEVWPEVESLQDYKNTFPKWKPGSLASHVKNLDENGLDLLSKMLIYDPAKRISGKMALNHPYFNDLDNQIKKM
CDK1, sequence (P14635 whole entry partner, species assumed): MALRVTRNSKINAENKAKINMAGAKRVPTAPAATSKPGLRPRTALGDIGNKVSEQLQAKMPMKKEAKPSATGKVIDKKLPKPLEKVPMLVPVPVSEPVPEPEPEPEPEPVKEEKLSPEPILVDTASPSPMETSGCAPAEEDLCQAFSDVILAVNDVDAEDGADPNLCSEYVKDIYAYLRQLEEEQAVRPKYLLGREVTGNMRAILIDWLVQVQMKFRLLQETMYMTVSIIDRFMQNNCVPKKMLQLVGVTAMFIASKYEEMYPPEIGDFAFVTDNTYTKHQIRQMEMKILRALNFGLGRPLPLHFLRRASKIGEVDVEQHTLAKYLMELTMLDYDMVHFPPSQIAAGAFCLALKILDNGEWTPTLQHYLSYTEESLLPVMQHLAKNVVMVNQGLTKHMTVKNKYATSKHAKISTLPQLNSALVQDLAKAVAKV

`CN(C)Cc1ccc(-n2c(=O)ccc3cnc4ccc(-c5cc(Cl)c(O)c(Cl)c5)cc4c32)cc1` [THZ-4-63-1] was tested, and the “MELK kinase activity more sensitive than that of CDK1” value (CDK1) was 20 fold, the “Phosphorylation of Aurora kinases” value (Aurora kinases) was “lack of obvious inhibition; also recorded: did not inhibit” and the “Histone H3 phosphorylation at Thr3” value [1] was “strong suppression”. For the same molecule, the “Centromeric localization of CPC subunits Survivin and Aurora B” value [2] was “became diffusive”, the “Cells undergoing mitotic slippage” value (U2OS-(H2B-GFP) cells) was “nearly half” and the “Inhibition of cell growth, combined with paclitaxel” value (MDA-MB-468) was no less than 80%.

Source: US10544138B2, “Tricyclic kinase inhibitors of MELK and methods of use” (Dana-Farber Cancer Institute, Inc., priority 2015, dated 2020)
